The values that follow come from article PMC6159992, “Selective disruption of TLR2-MyD88 interaction inhibits inflammation and attenuates Alzheimer’s pathology” (The Journal of Clinical Investigation, 2018).

The test system of one data set is 5XFAD-Tg mice. Nature of the data set: Gross motor activity of 5XFAD-Tg mice. The note with it: 0.1 mg/kg BW/2 d intranasal, 30 days, n=8. It is filed as in vivo, mouse. From the text:
The ultimate objective of neuroprotection in AD is to improve and/or protect memory. Major functions of the hippocampus are to generate and organize long-term memory and spatial learning. Therefore, we examined whether WT TIDM peptide protected memory and learning in Tg mice. As expected, Tg mice took much longer to find the food reward hole and had greater latency (P < 0.001 [= 0.0000213]) with higher errors (P < 0.001 [= 0.0000251]) in the Barnes maze as compared with non-Tg mice. […] Likewise, on the T-maze test, untreated Tg mice also had fewer positive turns (P < 0.001 [= 0.0000440]) and a higher number of negative turns (P < 0.001 [= 0.000223]) than did age-matched non-Tg mice (Figure 6, L and M). […] We also monitored the short-term memory of Tg mice using the novel object recognition (NOR) test. […]
treatment, hippocampal extracts of all groups of mice (n=4 per group) were analyzed for protein levels of Aβ by Western blot using 82E1 mAb. […] Results were analyzed by […]
Figure S14. […] After 30d of treatment, ELISA quantification of Aβ1-40 (A, C & E) and Aβ1-42 (B, D & F) was performed in serum (A & B) and TBS (C & D) and (TBS+Triton X-100) (E & F) extracted hippocampal tissues. […]
Figure S15. […] After 30d of treatment, hippocampal extracts of all groups of mice (n=4 per group) were analyzed for phospho-tau and total tau by Western blot. […] Results were analyzed by two-sample t-tests. […]

Data set [1] is described as follows: Hippocampal level of WT TIDM after intranasal administration (ESI-MS). The class given is in vivo. The note with it: male, B6SJL-Tg(APPSwFlLon,PSEN1*M146L*L286V)6799Vas/J (5XFAD), mouse, hippocampus (brain tissue), inhaled or intranasal, Tg mice, 1 intranasal dose 0.1 mg/kg BW, 60 minutes after administration, read-out: level of WT TIDM peptide in hippocampus. On the procedure:
It is becoming clear that glial inflammation plays an important role in the loss of neurons in AD and other neurodegenerative disorders ([7], [9], [22]–[24]). […] We first determined whether the WT TIDM peptide could enter into the hippocampus. Tg mice were treated with TIDM peptides intranasally, and after 60 minutes of administration, we detected WT TIDM peptide in the hippocampus of Tg mice by electrospray ionization–coupled mass spectrometry (ESI-MS) (Figure 5, A and C). […] The level of WT TIDM peptide was 23.33 ± 14.14 ng/g brain tissue in the hippocampus of WT TIDM–treated Tg mice compared with nil in the saline-treated Tg mice. By infrared scanning, we also detected TIDM peptide in hippocampus after intranasal treatment (Supplemental Figure 10). […]
Tg mice (6 months of age) received 1 intranasal dose of WT TIDM peptide (0.1 mg/kg BW). After 60 minutes of treatment, mice were perfused with sterile saline, and hippocampi were homogenized and supernatant analyzed for WT TIDM by ESI-MS (A, WT TIDM standard; B, untreated 5XFAD-Tg; C, WT TIDM–treated 5XFAD-Tg). […] Cells positive for Iba-1 (E, CA1; F, CA3), p-p65 (G, CA1; H, CA3), and iNOS (I, CA1; J, CA3) were counted in 2 sections (2 images/slide) from each of 6 different mice (n = 6) per group. ^†P < 0.001 versus non-Tg; ^††P < 0.001 versus Tg; 2-sample t test. […]

For data set [2], the target named is T1, cMyc-tagged C-terminal TIR domain of TLR2 protein (cTLR2), purified recombinant protein (mouse, UniProt Q9QUN7 640-784).
T1 construct: TLR2, mouse, C-terminal TIR domain, amino acids 640-784; subcloned from the full-length construct pLenti-cMyc-DDK/Tlr2 (Origene); also called cMyc-tagged cTLR2 recombinant protein; TLR2 (in the SPR methods)
Nature of the data set: SPR; cTLR2 (0.8 mg/ml, PBS) immobilised on a 500-kDa carboxymethyl dextran gold sensor slide (Reichert 4SPR); WT TIDM and mTIDM peptides injected in PBS running buffer, 30 μl/min, 2.5 min association, 3 min dissociation; KD from the response at equilibrium versus peptide concentration. Conditions: both partners purified.

T1 sequence (Q9QUN7 640-784): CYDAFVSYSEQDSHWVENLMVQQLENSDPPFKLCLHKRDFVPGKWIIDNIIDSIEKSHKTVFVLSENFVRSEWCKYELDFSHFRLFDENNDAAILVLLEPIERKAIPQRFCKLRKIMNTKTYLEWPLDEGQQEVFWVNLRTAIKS

Take `CC[C@H](C)[C@H](NC(=O)[C@H](CCCCN)NC(=O)[C@@H](NC(=O)[C@H](CCC(N)=O)NC(=O)[C@H](CCCNC(=N)N)NC(=O)[C@@H](N)CC(=O)O)[C@@H](C)CC)C(=O)N[C@@H](Cc1c[nH]c2ccccc12)C(=O)N[C@@H](Cc1ccccc1)C(=O)N[C@@H](CCC(N)=O)C(=O)N[C@@H](CC(N)=O)C(=O)N[C@@H](CCCNC(=N)N)C(=O)N[C@@H](CCCNC(=N)N)C(=O)N[C@@H](CCSC)C(=O)N[C@@H](CCCCN)C(=O)N[C@@H](Cc1c[nH]c2ccccc12)C(=O)N[C@@H](CCCCN)C(=O)N[C@@H](CCCCN)C(=O)N1CCC[C@H]1C(=O)NCC(=O)N[C@@H](Cc1c[nH]c2ccccc12)C(=O)N[C@@H](Cc1c[nH]cn1)C(=O)N[C@@H](CCC(N)=O)C(=O)N[C@@H](CC(=O)O)C(=O)O` [mTIDM]: the “gross motor activity (movements, horizontal activity, rest time, stereotypy)” value with 5XFAD-Tg mice is recorded as “neither the WT TIDM nor the mTIDM peptide modulated the gross motor activity of Tg mice”.

For `CC[C@H](C)[C@H](NC(=O)[C@H](CCCCN)NC(=O)[C@@H](NC(=O)[C@H](CCC(N)=O)NC(=O)[C@H](CCCNC(=N)N)NC(=O)[C@@H](N)CC(=O)O)[C@@H](C)CC)C(=O)N[C@@H](Cc1c[nH]c2ccccc12)C(=O)N[C@@H](Cc1ccccc1)C(=O)N[C@@H](CCC(N)=O)C(=O)N[C@@H](CC(N)=O)C(=O)N[C@@H](CCCNC(=N)N)C(=O)N[C@@H](CCCNC(=N)N)C(=O)N[C@@H](CCSC)C(=O)N[C@@H](CCCCN)C(=O)N[C@@H](Cc1c[nH]c2ccccc12)C(=O)N[C@@H](CCCCN)C(=O)N[C@@H](CCCCN)C(=O)N1CCC[C@H]1C(=O)NCC(=O)N[C@@H](C)C(=O)N[C@@H](Cc1c[nH]cn1)C(=O)N[C@@H](CCC(N)=O)C(=O)N[C@@H](CCCCN)C(=O)O` [WT TIDM], the “gross motor activity (movements, horizontal activity, rest time, stereotypy)” value in the data set with 5XFAD-Tg mice was “neither the WT TIDM nor the mTIDM peptide modulated the gross motor activity of Tg mice”. Also, the tissue level at time at 1 h in data set [1] was determined as 23.3 ± 14.1 ng/g.

As to DRQIKIWFQNRRMKWKKPGAHQK (Drosophila; the printed order is kept), the equilibrium dissociation constant (Kd) (as a rule, the free concentration of one partner at which half of the binding sites on the other are occupied at equilibrium, for simple one-to-one binding) in data set [2] was 8 µM.

B1: mutated TIDM peptide (peptide)
peptide: DRQIKIWFQNRRMKWKKPGWHQD
notes: Drosophila; MyD88, mouse, residues 245-250 of the CD loop with two underlined mutations (A to W, K to D); positions 247 and 250 counted from the printed limits 245 and 250; also called mTIDM
For the molecule B1, the Kd in data set [2] was 19 µM.
